In US20170303540A1, “NOVEL TRIAZOLE DERIVATIVES” (BAYER CROPSCIENCE AKTIENGESELLSCHAFT, priority 2014, published 2017):

Assay: Log P by HPLC on reversed phase columns (EEC directive 79/831 Annex V.A8)
Assay type: physicochemical
Conditions: method [a]: HPLC/LC-MS at pH 2.7, 0.1% formic acid in water / acetonitrile gradient
Protocol: Measurement of Log P values for Table 2 was performed according to EEC directive 79/831 Annex V.A8 by HPLC (High Performance Liquid Chromatography) on reversed phase columns with the following methods: ^[a]Measurement of LC-MS was done at pH 2.7 with 0.1% formic acid in water and with acetonitrile (contains 0.1% formic acid) as eluent with a linear gradient from 10% acetonitrile to 95% acetonitrile. […] Lambda-max-values were determined using UV-spectra from 200 nm to 400 nm and the peak values of the chromatographic signals.

Structure (SMILES) | LogP
CC(C)(Cc1ccc(Cl)cc1)C(O)(Cc1ccnnc1Cl)Cn1cncn1 (stereo not drawn) [Example I-368] | 2.75^[a]
CCC1(C(O)(Cc2cc(Cl)nnc2Cl)Cn2cncn2)CC1 (stereo not drawn) [Example I-441] | 2.18^[a]
OC(Cc1ccc(Cl)cc1Cl)(Cc1ccnnc1Cl)Cn1cncn1 (stereo not drawn) [Example I-444] | 2.34^[a]
CC(CF)(CF)C(O)(Cc1ccnnc1Cl)Cn1cncn1 (stereo not drawn) [Example I-530] | 1.28^[a]
OC(Cc1ccc(Cl)cc1Cl)(Cc1cc(Cl)nnc1Cl)Cn1cncn1 (stereo not drawn) [Example I-480] | 2.96^[a]
C=CC(C)(C)C(O)(Cc1ccnnc1Cl)Cn1cncn1 (stereo not drawn) [Example I-592] | 1.60^[a]

The remaining lines, values ahead:

LogP | Structure (SMILES)
1.49^[a] | OC(Cc1cc(Cl)nnc1Cl)(Cn1cncn1)C1CC1 (stereo not drawn) [Example I-710]
1.31^[a] | CC(C)(CF)C(O)(Cc1ccnnc1Cl)Cn1cncn1 (stereo not drawn) [Example I-593]
0.84^[a] | OC(Cc1ccnnc1Cl)(Cn1cncn1)C1CC1 (stereo not drawn) [Example I-799]
1.70^[a] | CC(C)(CCl)C(O)(Cc1ccnnc1Cl)Cn1cncn1 (stereo not drawn) [Example I-771]
1.59^[a] | CCC1(C(O)(Cc2ccnnc2Cl)Cn2cncn2)CC1 (stereo not drawn) [Example I-745]

Same assay, conditions: reversed phase HPLC columns; method [a]: HPLC/LC-MS at pH 2.7, 0.1% formic acid in water / acetonitrile gradient

chromatographic logP | Structure (SMILES)
1.48 | CC(C)(C)C(O)(Cc1ccnnc1Cl)Cn1cncn1 (stereo not drawn) [Example I-713, 1-(3-chloropyridazin-4-yl)-3,3-dimethyl-2-(1H-1,2,4-triazol-1-ylmethyl)butan-2-ol]
